Data reported in US20120214784A1, “SPIROPIPERIDINE COMPOUNDS AS ORL-1 RECEPTOR ANTAGONISTS” (ELI LILLY AND COMPANY, priority 2009, published 2012).

Legend:
[1] = biological target: T1, nociceptin/ORL1 receptors (Rattus norvegicus, UniProt P35370); assay: In vivo receptor occupancy (LC/MS/MS, RO Tracer) in hypothalamus; conditions: oral 3 mg/kg dose after 6 hr.
T1 construct: rats are sacrificed by cervical dislocation and the hypothalamus is removed; from tissue; host or cells: rat hypothalamus (in vivo occupancy)
T1 sequence (P35370 whole entry): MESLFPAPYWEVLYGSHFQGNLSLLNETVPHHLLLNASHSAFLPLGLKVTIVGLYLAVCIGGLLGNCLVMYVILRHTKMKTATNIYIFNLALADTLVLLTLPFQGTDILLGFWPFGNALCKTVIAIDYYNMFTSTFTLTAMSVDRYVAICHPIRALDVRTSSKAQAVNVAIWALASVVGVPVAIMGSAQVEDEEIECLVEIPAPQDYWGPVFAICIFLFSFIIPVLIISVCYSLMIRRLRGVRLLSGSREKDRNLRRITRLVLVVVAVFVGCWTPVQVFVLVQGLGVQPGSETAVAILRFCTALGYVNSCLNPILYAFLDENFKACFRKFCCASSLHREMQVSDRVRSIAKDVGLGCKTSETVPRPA

Adenosine A3 = Adenosine A3 (Homo sapiens, UniProt P0DMS8); assay: Radioligand binding selectivity
Sequence of Adenosine A3 (P0DMS8 whole entry): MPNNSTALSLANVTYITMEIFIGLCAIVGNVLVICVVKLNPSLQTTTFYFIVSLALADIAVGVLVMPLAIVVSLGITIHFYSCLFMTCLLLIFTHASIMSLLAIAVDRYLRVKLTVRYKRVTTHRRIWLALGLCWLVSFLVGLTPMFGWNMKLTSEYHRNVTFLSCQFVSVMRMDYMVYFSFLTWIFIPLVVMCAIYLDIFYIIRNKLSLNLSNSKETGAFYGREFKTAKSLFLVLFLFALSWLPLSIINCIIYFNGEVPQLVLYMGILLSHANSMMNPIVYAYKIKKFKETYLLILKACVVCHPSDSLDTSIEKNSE

[2] = biological target: T2, cloned human ORL1/nociceptin receptors (Homo sapiens, UniProt P41146); assay: Functional blockade of agonist-mediated G-protein activation, GTP-γ-[35S] binding; assay type: biochemical
T2 construct: expressed in transfected cells
T2 sequence (P41146 whole entry): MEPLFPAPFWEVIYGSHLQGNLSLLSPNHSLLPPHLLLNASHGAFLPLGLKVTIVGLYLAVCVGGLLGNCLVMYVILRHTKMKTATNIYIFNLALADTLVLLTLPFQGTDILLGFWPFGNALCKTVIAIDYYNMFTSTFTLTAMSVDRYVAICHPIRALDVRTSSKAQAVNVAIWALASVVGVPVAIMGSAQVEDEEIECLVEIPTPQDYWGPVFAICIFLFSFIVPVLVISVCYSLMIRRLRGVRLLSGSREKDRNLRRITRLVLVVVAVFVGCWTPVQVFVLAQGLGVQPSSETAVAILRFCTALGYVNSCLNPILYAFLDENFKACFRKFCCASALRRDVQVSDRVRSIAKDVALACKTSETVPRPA
Excerpt: Agonist-mediated stimulation of G-protein coupled receptors results in the activation of membrane associated Gαβγ-protein heterotrimer complexes, and represents the first step in the transduction of extracellular signals to modification of intracellular pathways. The first step in activation of receptor-mediated activation of Gαβγ-proteins heterotrimer is the exchange of Gα subunit bound guanosine diphoshpate (GDP) for guanosine triphosphate (GTP). The binding of GTP to the Gα subunit causes dissociation of the heterotrimer subunits, Gβ and Gγ, resulting in the modulation of several intracellular signaling cascades. Measurement of receptor-mediated G-protein activation can be measured using the non-hydrolyzable radiolabeled analog of GTP, GTP-γ-[35S]. Utilizing this methodology, antagonist affinity (Kb) is measured in membranes expressing cloned human ORL1/nociceptin receptors using a GTP-γ-[35S] binding assay according to previously described protocols with minor modifications (DeLapp et al., J Pharmacol Exp Ther. 1999 May; 289(2):946-55; Ozaki et al., Eur J Pharmacol. 2000 Aug. 18; 402(1-2):45-53). Assays are conducted in a 200-μl volume with the following buffer composition: 100 mM NaCl, 20 mM HEPES, 5 mM MgCl2, 1 mM EDTA, 0.1% BSA, 3 μM GDP, 0.5 nM [^35S]GTPγS. ORL1 receptor membrane suspension is added at a concentration of 20 μg protein per well and receptor stimulation is achieved using 300 nM nociceptin/OFQ. Wheat germ agglutinin coated SPA beads (Amersham, Arlington Hts., Ill.) are added at 1 mg per well to detect membrane-bound [^35S]GTPγS. Plates are sealed and incubated for 2 hr. at room temperature. Plates are then placed at 4° C. overnight to allow the SPA beads to settle and then counted in a Wallac Microbeta. Specific [^35S]GTPγS binding is determined as the difference in CPM observed in the absence and presence of 10 μM unlabeled GTPγS. Data are plotted as the percent of specific [^35S]GTPγS bound. Curves are plotted as the percent of specific binding and IC50 values are determined using a sigmoidal dose response curve with variable slope. Antagonist affinity (Kb) is estimated according to DeLapp et al., 1999 using a modification of the equation of Cheng and Prusoff (1973) where Kb=IC50×(1+D×EC50^−1)^−1.

Muscarinic M3 = Muscarinic M3 (Homo sapiens, UniProt P20309); assay: Radioligand binding selectivity
Sequence of Muscarinic M3 (P20309 whole entry): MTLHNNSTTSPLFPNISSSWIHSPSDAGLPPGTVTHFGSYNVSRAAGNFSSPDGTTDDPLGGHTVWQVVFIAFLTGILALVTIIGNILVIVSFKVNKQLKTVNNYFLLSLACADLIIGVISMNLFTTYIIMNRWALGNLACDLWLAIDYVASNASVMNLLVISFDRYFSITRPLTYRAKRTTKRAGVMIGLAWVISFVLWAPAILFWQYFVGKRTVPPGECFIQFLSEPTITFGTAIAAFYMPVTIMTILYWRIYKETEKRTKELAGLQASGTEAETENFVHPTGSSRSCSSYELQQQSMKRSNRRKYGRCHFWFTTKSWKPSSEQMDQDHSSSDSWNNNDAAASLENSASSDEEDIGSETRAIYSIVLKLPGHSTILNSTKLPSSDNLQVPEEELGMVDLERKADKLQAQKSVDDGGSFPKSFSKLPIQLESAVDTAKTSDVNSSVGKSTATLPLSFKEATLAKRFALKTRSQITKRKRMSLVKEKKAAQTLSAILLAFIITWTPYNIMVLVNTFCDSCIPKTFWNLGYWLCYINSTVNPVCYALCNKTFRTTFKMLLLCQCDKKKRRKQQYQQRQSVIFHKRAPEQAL

Mu Opioid = Mu Opioid (Homo sapiens, UniProt P35372); assay: Radioligand binding selectivity
Sequence of Mu Opioid (P35372 whole entry): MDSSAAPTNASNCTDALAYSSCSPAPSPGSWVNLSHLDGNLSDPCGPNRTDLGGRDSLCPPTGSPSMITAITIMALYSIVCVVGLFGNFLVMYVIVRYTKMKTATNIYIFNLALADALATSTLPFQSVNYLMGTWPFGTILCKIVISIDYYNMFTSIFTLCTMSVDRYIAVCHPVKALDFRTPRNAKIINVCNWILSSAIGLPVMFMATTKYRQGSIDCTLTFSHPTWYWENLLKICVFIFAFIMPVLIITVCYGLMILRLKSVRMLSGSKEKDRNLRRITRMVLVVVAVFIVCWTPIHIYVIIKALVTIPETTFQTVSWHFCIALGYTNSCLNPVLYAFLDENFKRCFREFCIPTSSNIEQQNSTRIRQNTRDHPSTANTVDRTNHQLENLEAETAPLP

5-HT6 = 5-HT6 (Homo sapiens, UniProt P50406); assay: Radioligand binding selectivity
Muscarinic M5 = Muscarinic M5 (Homo sapiens, UniProt P08912); assay: Radioligand binding selectivity
Sequence of Muscarinic M5 (P08912 whole entry): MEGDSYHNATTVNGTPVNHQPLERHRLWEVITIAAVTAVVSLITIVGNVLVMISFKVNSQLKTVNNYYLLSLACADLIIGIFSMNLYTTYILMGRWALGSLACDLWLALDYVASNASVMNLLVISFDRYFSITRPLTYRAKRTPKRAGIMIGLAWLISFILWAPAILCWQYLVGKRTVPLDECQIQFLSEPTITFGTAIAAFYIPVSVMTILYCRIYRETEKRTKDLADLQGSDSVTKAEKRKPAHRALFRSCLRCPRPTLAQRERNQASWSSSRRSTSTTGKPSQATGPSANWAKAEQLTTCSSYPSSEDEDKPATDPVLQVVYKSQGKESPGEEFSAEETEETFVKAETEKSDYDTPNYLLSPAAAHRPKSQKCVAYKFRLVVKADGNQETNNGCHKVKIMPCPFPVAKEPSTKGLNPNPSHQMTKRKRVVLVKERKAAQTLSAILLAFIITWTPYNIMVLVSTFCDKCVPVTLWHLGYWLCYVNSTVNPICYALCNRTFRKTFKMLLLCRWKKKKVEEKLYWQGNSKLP

5-HT5 = 5-HT5 (Homo sapiens, UniProt P47898); assay: Radioligand binding selectivity
Sequence of 5-HT5 (P47898 whole entry, species assumed): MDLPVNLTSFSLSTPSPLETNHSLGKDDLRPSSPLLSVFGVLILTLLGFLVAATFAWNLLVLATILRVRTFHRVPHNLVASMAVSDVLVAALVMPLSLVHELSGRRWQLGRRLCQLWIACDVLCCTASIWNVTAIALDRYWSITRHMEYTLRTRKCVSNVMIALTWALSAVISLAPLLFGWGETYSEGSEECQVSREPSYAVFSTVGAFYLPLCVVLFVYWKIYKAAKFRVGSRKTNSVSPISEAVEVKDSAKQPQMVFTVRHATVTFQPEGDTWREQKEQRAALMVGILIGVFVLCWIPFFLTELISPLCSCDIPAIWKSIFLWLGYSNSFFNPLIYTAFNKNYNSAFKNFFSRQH

5-HT2A = 5-HT2A (Homo sapiens, UniProt P28223); assay: Radioligand binding selectivity
Sequence of 5-HT2A (P28223 whole entry, species assumed): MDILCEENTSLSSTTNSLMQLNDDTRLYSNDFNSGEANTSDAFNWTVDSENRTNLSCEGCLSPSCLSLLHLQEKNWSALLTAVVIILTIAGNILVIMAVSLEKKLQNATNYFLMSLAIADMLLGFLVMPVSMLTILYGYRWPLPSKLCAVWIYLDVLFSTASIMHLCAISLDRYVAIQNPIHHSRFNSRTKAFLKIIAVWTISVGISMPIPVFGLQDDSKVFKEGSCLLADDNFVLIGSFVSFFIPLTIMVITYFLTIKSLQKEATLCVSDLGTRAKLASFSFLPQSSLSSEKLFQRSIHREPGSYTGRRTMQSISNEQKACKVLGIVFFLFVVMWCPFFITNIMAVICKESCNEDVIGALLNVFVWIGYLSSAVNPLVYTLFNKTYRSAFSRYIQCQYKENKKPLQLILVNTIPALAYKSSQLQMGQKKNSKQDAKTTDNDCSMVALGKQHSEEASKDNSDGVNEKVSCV

5-HT2C = 5-HT2C (Homo sapiens, UniProt P28335); assay: Radioligand binding selectivity
Sequence of 5-HT2C (P28335 33-458, species assumed): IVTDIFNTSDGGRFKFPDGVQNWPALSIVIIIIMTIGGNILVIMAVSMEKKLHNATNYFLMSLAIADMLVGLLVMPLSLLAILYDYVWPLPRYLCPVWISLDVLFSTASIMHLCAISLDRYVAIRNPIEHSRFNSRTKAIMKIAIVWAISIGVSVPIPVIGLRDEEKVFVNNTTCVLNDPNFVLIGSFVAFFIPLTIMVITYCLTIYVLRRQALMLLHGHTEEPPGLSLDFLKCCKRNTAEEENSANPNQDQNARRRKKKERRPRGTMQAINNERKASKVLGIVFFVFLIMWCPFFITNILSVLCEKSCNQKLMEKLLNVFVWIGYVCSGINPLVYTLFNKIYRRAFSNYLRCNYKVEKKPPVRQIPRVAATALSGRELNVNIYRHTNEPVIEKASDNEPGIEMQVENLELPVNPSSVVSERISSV

5-HT4 = 5-HT4 (Homo sapiens, UniProt Q13639); assay: Radioligand binding selectivity
Sequence of 5-HT4 (Q13639 whole entry, species assumed): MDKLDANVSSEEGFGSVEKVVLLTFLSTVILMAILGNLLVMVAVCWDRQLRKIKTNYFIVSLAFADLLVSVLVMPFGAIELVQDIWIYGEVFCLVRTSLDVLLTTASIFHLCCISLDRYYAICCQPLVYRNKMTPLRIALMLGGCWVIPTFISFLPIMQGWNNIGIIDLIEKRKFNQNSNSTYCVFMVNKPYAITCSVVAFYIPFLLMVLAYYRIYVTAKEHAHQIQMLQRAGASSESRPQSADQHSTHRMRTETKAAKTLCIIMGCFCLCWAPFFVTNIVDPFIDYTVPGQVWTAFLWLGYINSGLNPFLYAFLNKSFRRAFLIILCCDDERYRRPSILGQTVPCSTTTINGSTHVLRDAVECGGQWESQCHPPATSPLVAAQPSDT

Delta Opioid = Delta Opioid (Homo sapiens, UniProt P41143); assay: Radioligand binding selectivity
Sequence of Delta Opioid (P41143 whole entry): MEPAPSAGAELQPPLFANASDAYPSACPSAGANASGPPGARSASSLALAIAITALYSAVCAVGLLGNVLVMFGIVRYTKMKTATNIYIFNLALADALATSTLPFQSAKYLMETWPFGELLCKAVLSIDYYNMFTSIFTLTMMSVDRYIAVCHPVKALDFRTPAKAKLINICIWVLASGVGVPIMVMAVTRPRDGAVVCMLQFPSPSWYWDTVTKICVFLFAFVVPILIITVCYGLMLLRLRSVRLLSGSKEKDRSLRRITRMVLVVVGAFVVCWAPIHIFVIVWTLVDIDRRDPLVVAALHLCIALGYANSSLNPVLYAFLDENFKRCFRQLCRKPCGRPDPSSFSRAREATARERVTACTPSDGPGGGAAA

SMILES: Cc1nn(-c2c(F)cccc2F)cc1CN1CCC2(CC1)OCC(F)(F)c1cc(Cl)sc12.O=C(O)C(O)C(O)C(=O)O [Example 2, 2-Chloro-1′-[[1-(2,6-difluorophenyl)-3-methyl-pyrazol-4-yl]methyl]-4,4-difluoro-spiro[5H-thieno[2,3-c]pyran-7,4′-piperidine] (L)-Tartrate]
- receptor occupancy at 3 mg/kg [1]: 76%
- Ki (Adenosine A3): 2300 nM
- Kb [2]: 0.43 nM
- Ki (Muscarinic M3): > 24200 nM
- Ki (Mu Opioid): > 467 nM
- Ki (5-HT6): > 5830 nM
- Ki (Muscarinic M5): 2800 nM
- Ki (5-HT5): > 9020 nM
- Ki (5-HT2A): > 7180 nM
- Ki (5-HT2C): > 8360 nM
- Ki (5-HT4): > 1970 nM
- Ki (Delta Opioid): > 481 nM
